From patent publication US20230123334A1, “AMINO LIPID COMPOUND, PREPARATION METHOD THEREFOR, AND APPLICATION THEREOF” (SHENZHEN SHENXIN BIOTECHNOLOGY CO., LTD., priority 2020, published 2023)

What follows are molecules tested on HEK293 cells (assay: Preliminary screening as mRNA vectors, EGFP mRNA transfection of HEK293 cells). Settings: EGFP mRNA 50 ng per well, 96-well plates; percentage of GFP fluorescent cells relative to total number of cells (Hoechst).
Format: cell-based
Procedure, shortened: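 HEK293 cells in DMEM plus 10% FBS transfected in 96-well format with 50 ng EGFP mRNA per well; Lipofectamine2000 served as positive control. Read-out is the percentage of GFP-fluorescent cells among total cells, counted by Hoechst nuclear stain.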

Structure (SMILES)	Absolute mRNA transfection efficiency in HEK293 cells
CCCCCCNc1nc(NCCN2CCCCC2)nc(SCCCCCC)n1 [Compound D4S6N6]	0.3%
CCCCCCCSc1nc(NCCCN2CCN(C)CC2)nc(SCCCCCCC)n1 [Compound D9S7S7]	18.3%
CCCCCCCCCCCCCCCSc1nc(NCCCCCCCCCCCCC)nc(NCCN2CCCC2)n1 [Compound D3S15N13]	3.0%
CCCCCCCCCCCCCNc1nc(NCCN2CCOCC2)nc(SCCCCCCCCCCCC)n1 [Compound D2S12N13]	0.0%
CCCCCCCCCCCCCCSc1nc(NCCN2CCCC2)nc(N(CCCCCCCCCCCC)CCCCCCCCCCCC)n1 [D3S14^2N12]	0.2%
CCCCCCCCCCCSc1nc(NCCCCCCC)nc(NCCCN2CCOCC2)n1 [Compound D8S11N7]	3.1%
CCCCCCCCCCCCCCCSc1nc(NCCCCCCCCCCC)nc(NCCN2CCCC2)n1 [Compound D3S15N11]	23.2%
CCCCCCCCCCCCNc1nc(NCCN(C)C)nc(SCCCCCCCCC)n1 [Compound D1S9N12]	30.2%
CCCCCCCCCCCCCCCCCCSc1nc(NCCCCCCCCCCCCCCCC)nc(NCCN(CC)CC)n1 [Compound D7S18N16]	0.3%
CCCCCCCCCCCCCCCCCCSc1nc(NCCCCCCCCCCCC)nc(NCCCN2CCOCC2)n1 [Compound D8S18N12]	0.4%
CCCCCCCCCCCCCCCCCCSc1nc(NCCCN2CCN(C)CC2)nc(N(CCCCCCCCCCCC)CCCCCCCCCCCC)n1 [D9S18^2N12]	0.0%
CCCCCCCCCCCSc1nc(NCCCN(C)C)nc(SCCCCCCC)n1 [Compound D6S7S11]	68.6%
CCCCCCCCCCCCCCCCSc1nc(NCCN2CCOCC2)nc(SCCCCCCC)n1 [Compound D2S7S16]	13.9%
CCCCCCCCCCCCSc1nc(NCCN(C)C)nc(SCCCCCCC)n1 [Compound D1S7S12]	3.1%
CCCCCCCCCCSc1nc(NCCN2CCOCC2)nc(SCCCCCCC)n1 [Compound D2S7S10]	32.4%
CCCCCCCCCCCCCCCCCCNc1nc(NCCCN(C)C)nc(SCCCCCC)n1 [Compound D6S6N18]	60.1%
CCCCCCCCCCCCCCCCCCSc1nc(NCCCCCCC)nc(NCCCN2CCOCC2)n1 [Compound D8S18N7]	3.9%
CCCCCCCCCNc1nc(NCCN(C)C)nc(SCCCCCCCCC)n1 [Compound D1S9N9]	8.0%
CCCCCCCCSc1nc(NCCCCCCC)nc(NCCN(CC)CC)n1 [Compound D7S8N7]	0.7%
CCCCCCCNc1nc(NCCN(CC)CC)nc(SCCCCCC)n1 [Compound D7S6N7]	0.0%
CCCCCCCCNc1nc(NCCCN(C)C)nc(SCCCCCC)n1 [Compound D6S6N8]	0.4%
CCCCCCCCCCCCCNc1nc(NCCCN2CCOCC2)nc(SCCCCCCCCCC)n1 [Compound D8S10N13]	0.2%

Structure (SMILES)	Absolute mRNA transfection efficiency in HEK293 cells
CCCCCCCCCCCCCNc1nc(NCCCN2CCOCC2)nc(SCCCCCCCCCCCC)n1 [Compound D8S12N13]	0.3%
CCCCCCCCCCCCCCCCCCSc1nc(NCCCCCCCCCCCC)nc(NCCN2CCCCC2)n1 [Compound D4S18N12]	0.7%
CCCCCCCCCCCCCCCCSc1nc(NCCN(C)C)nc(SCCCCCC)n1 [Compound D1S6S16]	0.9%
CCCCCCCCCCCCCCCCNc1nc(NCC2CCN(C)CC2)nc(SCCCCCCCCCC)n1 [Compound D10S10N16]	15.4%
CCCCCCCCCCCCCCCCCCNc1nc(NCCN2CCOCC2)nc(SCCCCCCCCCCCCCC)n1 [Compound D2S14N18]	0.1%
CCCCCCCCCCCNc1nc(NCCCN(C)C)nc(SCCCCCCCCCCC)n1 [Compound D6S11N11]	35.5%
CCCCCCCCCCCCSc1nc(NCCCCCCCCC)nc(NCCN2CCOCC2)n1 [Compound D2S12N9]	1.1%
CCCCCCCCCCCCCCCCCCNc1nc(NCCCN2CCN(C)CC2)nc(SCCCCCCCCCCCC)n1 [Compound D9S12N18]	0.2%
CCCCCCCCSc1nc(NCCN2CCCC2)nc(SCCCCCCCC)n1 [Compound D3S8S8]	26.1%
CCCCCCCCCCCCCCSc1nc(NCCCCCC)nc(NCCN(CC)CC)n1 [Compound D7S14N6]	15.7%
CCCCCCCCCCCCCCCSc1nc(NCCN2CCCC2)nc(N(CCCCCCCCCCCC)CCCCCCCCCCCC)n1 [D3S15^2N12]	1.7%
CCCCCCCCCCCCNc1nc(NCCN(CC)CC)nc(SCCCCCCCCC)n1 [Compound D7S9N12]	25.6%
CCCCCCCCCCCNc1nc(NCCCN(C)C)nc(SCCCCCCC)n1 [Compound D6S7N11]	18.9%
CCCCCCCCCCCCCCSc1nc(NCCCCCC)nc(NCC2CCN(C)CC2)n1 [Compound D10S14N6]	41.9%
CCCCCCCCCCCCCCCCSc1nc(NCCCCCCCCCCCC)nc(NCCN(CC)CC)n1 [Compound D7S16N12]	1.3%
CCCCCCCCCCCCCNc1nc(NCCN(CC)CC)nc(SCCCCCCCCCCC)n1 [Compound D7S11N13]	5.8%
CCCCCCSc1nc(NCCN2CCCCC2)nc(SCCCCCC)n1 [Compound D4S6S6]	0.9%
CCCCCCCCCCCNc1nc(NCCN(CC)CC)nc(SCCCCCCCCCCC)n1 [Compound D7S11N11]	35.0%
CCCCCCCCCCCCCCSc1nc(NCCCCCCC)nc(NCCN2CCCCC2)n1 [Compound D4S14N7]	4.5%
CCCCCCCCCCCCCCCCSc1nc(NCCCCCCCCCCCCCCC)nc(NCC2CCN(C)CC2)n1 [Compound D10S16N15]	2.6%
CCCCCCCCCCCCCCCCNc1nc(NCC2CCN(C)CC2)nc(SCCCCCCCCCCCCCC)n1 [Compound D10S14N16]	3.0%
CCCCCCCCCCCCCCCCCCSc1nc(NCCCN2CCOCC2)nc(N(CCCCCCCCCCCC)CCCCCCCCCCCC)n1 [D8S18^2N12]	0.0%

Structure (SMILES)	Absolute mRNA transfection efficiency in HEK293 cells
CCCCCCCCCCCCCCCCCCSc1nc(NCCN2CCCCC2)nc(SCCCCCCC)n1 [Compound D4S7S18]	4.5%
CCCCCCCCCCCSc1nc(NCCCCCCCCC)nc(NCCCN2CCN(C)CC2)n1 [Compound D9S11N9]	60.3%
CCCCCCCCCCCCCCCSc1nc(NCCCCCCCCCCCCC)nc(NCCN(C)C)n1 [Compound D1S15N13]	1.5%
CCCCCCCCCCCCCCCSc1nc(NCCN2CCN(C)CC2)nc(N(CCCCCCCCCCCC)CCCCCCCCCCCC)n1 [D5S15^2N12]	0.9%
CCCCCCCCCCCCCCCCCCSc1nc(NCCCCCCCCCCCCCCCC)nc(NCCN(C)C)n1 [Compound D1S18N16]	0.1%
CCCCCCCCCCCCCNc1nc(NCCN2CCCCC2)nc(SCCCCCCCC)n1 [Compound D4S8N13]	4.5%
CCCCCCCCCCCNc1nc(NCCCN2CCOCC2)nc(SCCCCCCCC)n1 [Compound D8S8N11]	7.9%
CCCCCCCCCCCCCCCSc1nc(NCCCCCCCCCCCC)nc(NCCN2CCOCC2)n1 [Compound D2S15N12]	0.1%
CCCCCCCCCCCCCCCSc1nc(NCCCCCCC)nc(NCC2CCN(C)CC2)n1 [Compound D10S15N7]	22.1%
CCCCCCCCCCSc1nc(NCCN2CCN(C)CC2)nc(SCCCCCCCC)n1 [Compound D5S8S10]	65.6%
CCCCCCCCCCCCCCSc1nc(NCCCCCCC)nc(NCCN2CCN(C)CC2)n1 [Compound D5S14N7]	59.0%
CCCCCCCCCCCCCCCCSc1nc(NCCN2CCN(C)CC2)nc(N(CCCCCCCCCCCC)CCCCCCCCCCCC)n1 [D5S16^2N12]	0.1%
CCCCCCCCCCCCCCCNc1nc(NCC2CCN(C)CC2)nc(SCCCCCCCCCCC)n1 [Compound D10S11N15]	18.6%
CCCCCCCCCCCNc1nc(NCCCN(C)C)nc(SCCCCCCCC)n1 [Compound D6S8N11]	32.3%
CCCCCCCCCCCCCCSc1nc(NCCCCCC)nc(NCCN2CCN(C)CC2)n1 [Compound D5S14N6]	48.0%
CCCCCCCCCCCCCCCNc1nc(NCCCN2CCN(C)CC2)nc(SCCCCCCCC)n1 [Compound D9S8N15]	37.8%
CCCCCCCCCNc1nc(NCC2CCN(C)CC2)nc(SCCCCCCC)n1 [Compound D10S7N9]	4.6%
CCCCCCCCSc1nc(NCCCN2CCN(C)CC2)nc(SCCCCCCC)n1 [Compound D9S7S8]	43.7%
CCCCCCCCCCCSc1nc(NCCCCCCCC)nc(NCCCN2CCN(C)CC2)n1 [Compound D9S11N8]	37.6%
CCCCCCCCCCCCCCSc1nc(NCCCCCC)nc(NCCCN2CCOCC2)n1 [Compound D8S14N6]	9.2%
CCCCCCCCCCCCSc1nc(NCCCCCCCCC)nc(NCCN(CC)CC)n1 [Compound D7S12N9]	7.4%
CCCCCCCCCCCCCCCCCCNc1nc(NCCCN(C)C)nc(SCCCCCCCC)n1 [Compound D6S8N18]	40.4%
